Data taken from PubChem BioAssay (NCI).
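At the GI50, growth is halved. TGI denotes the concentration required for complete inhibition of growth.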

Assays:
Assay in all cases: NCI anticancer screen, dose series, 384-well format
[1] = tested on: 786-0 renal
[2] = tested on: A498 renal
[3] = tested on: A549 NSCLC
[4] = tested on: ACHN renal
[5] = tested on: BT-549 breast
[6] = tested on: CAKI-1 renal
[7] = tested on: COLO 205 colon
[8] = tested on: DU-145 prostate
[9] = tested on: EKVX NSCLC
[10] = tested on: HCT-116 colon
[11] = tested on: HCT-15 colon
[12] = tested on: HL-60(TB) leukemia
[13] = tested on: HOP-62 NSCLC
[14] = tested on: HOP-92 NSCLC
[15] = tested on: HS 578T breast
[16] = tested on: HT29 colon
[17] = tested on: IGROV1 ovarian
[18] = tested on: K-562 leukemia
[19] = tested on: KM12 colon
[20] = tested on: M14 melanoma
[21] = tested on: MALME-3M melanoma
[22] = tested on: MCF7 breast
[23] = tested on: MDA-MB-231 breast
[24] = tested on: MDA-MB-435 melanoma
[25] = tested on: MDA-MB-468 breast
[26] = tested on: MOLT-4 leukemia
[27] = tested on: NCI-H226 lung
[28] = tested on: NCI-H23 lung
[29] = tested on: NCI-H322M lung
[30] = tested on: NCI-H460 NSCLC
[31] = tested on: NCI-H522 lung
[32] = tested on: OVCAR-3 ovarian
[33] = tested on: OVCAR-4 ovarian
[34] = tested on: OVCAR-5 ovarian
[35] = tested on: OVCAR-8 ovarian
[36] = tested on: PC-3 prostate
[37] = tested on: RXF 393 renal
[38] = tested on: SF-268 CNS
[39] = tested on: SF-295 CNS
[40] = tested on: SF-539 CNS
[41] = tested on: SK-MEL-2 melanoma
[42] = tested on: SK-MEL-28 melanoma
[43] = tested on: SK-MEL-5 melanoma
[44] = tested on: SK-OV-3 ovarian
[45] = tested on: SN12C renal
[46] = tested on: SNB-19 CNS
[47] = tested on: SNB-75 CNS
[48] = tested on: SR leukemia
[49] = tested on: SW-620 colon
[50] = tested on: T-47D breast
[51] = tested on: TK-10 renal
[52] = tested on: U251 glioblastoma
[53] = tested on: UACC-257 melanoma
[54] = tested on: UACC-62 melanoma
[55] = tested on: UO-31 renal

O=C(NOCCO)c1cc(CN2OCCCC2=O)c(F)c(F)c1Nc1ccc(I)cc1F
GI50 [1]: 11.6 µM
TGI [1]: 42 µM
GI50 [2]: 0.236 µM
TGI [2]: 23.4 µM
GI50 [3]: 0.0535 µM
TGI [3]: 10.9 µM
GI50 [4]: 3.48 µM
TGI [4]: > 100 µM
GI50 [5]: 6.65 µM
TGI [5]: 72.1 µM
GI50 [6]: 0.059 µM
TGI [6]: 24.9 µM
GI50 [7]: < 0.01 µM
TGI [7]: 0.027 µM
GI50 [8]: 1.41 µM
TGI [8]: > 100 µM
GI50 [9]: 0.201 µM
TGI [9]: 14.9 µM
GI50 [10]: 0.018 µM
TGI [10]: 1.28 µM
GI50 [11]: 5.87 µM
TGI [11]: > 100 µM
GI50 [12]: < 0.01 µM
TGI [12]: 10.6 µM
GI50 [13]: 0.0251 µM
TGI [13]: 64.6 µM
GI50 [14]: 0.179 µM
TGI [14]: 1.72 µM
GI50 [15]: 3.48 µM
TGI [15]: 23.8 µM
GI50 [16]: < 0.01 µM
TGI [16]: 20.8 µM
GI50 [17]: 0.0179 µM
TGI [17]: 7.87 µM
GI50 [18]: 0.0276 µM
TGI [18]: 17 µM
GI50 [19]: 1.71 µM
TGI [19]: > 100 µM
GI50 [20]: < 0.01 µM
TGI [20]: 0.0119 µM
GI50 [21]: < 0.01 µM
TGI [21]: < 0.01 µM
GI50 [22]: 5.12 µM
TGI [22]: 35.6 µM
GI50 [23]: 0.0601 µM
TGI [23]: > 100 µM
GI50 [24]: < 0.01 µM
TGI [24]: > 100 µM
GI50 [25]: 2.56 µM
TGI [25]: 13.8 µM
GI50 [26]: 7.81 µM
TGI [26]: 20.6 µM
GI50 [27]: 0.0421 µM
TGI [27]: 7.38 µM
GI50 [28]: < 0.01 µM
TGI [28]: 0.371 µM
GI50 [29]: 0.0737 µM
TGI [29]: 4.19 µM
GI50 [30]: 0.0236 µM
TGI [30]: 51.9 µM
GI50 [31]: 5.97 µM
TGI [31]: 30.2 µM
GI50 [32]: 10.2 µM
TGI [32]: 39.6 µM
GI50 [33]: 17.4 µM
TGI [33]: > 100 µM
GI50 [34]: < 0.01 µM
TGI [34]: > 100 µM
GI50 [35]: 4.6 µM
TGI [35]: 25.5 µM
GI50 [36]: 34.4 µM
TGI [36]: > 100 µM
GI50 [37]: 0.498 µM
TGI [37]: 7.61 µM
GI50 [38]: 24.8 µM
TGI [38]: > 100 µM
GI50 [39]: 11.2 µM
TGI [39]: 41.1 µM
GI50 [40]: 0.554 µM
TGI [40]: 4.03 µM
GI50 [41]: < 0.01 µM
TGI [41]: 0.019 µM
GI50 [42]: < 0.01 µM
TGI [42]: 0.0115 µM
GI50 [43]: < 0.01 µM
TGI [43]: 17.5 µM
GI50 [44]: 8.12 µM
TGI [44]: 55.4 µM
GI50 [45]: 1.28 µM
TGI [45]: > 100 µM
GI50 [46]: 12.7 µM
TGI [46]: 62.8 µM
GI50 [47]: 2.85 µM
TGI [47]: 17.7 µM
GI50 [48]: 2.12 µM
TGI [48]: 11.1 µM
GI50 [49]: < 0.01 µM
TGI [49]: > 100 µM
GI50 [50]: 21.5 µM
TGI [50]: 65.2 µM
GI50 [51]: 0.198 µM
TGI [51]: 44.7 µM
GI50 [52]: 0.209 µM
TGI [52]: 17.8 µM
GI50 [53]: < 0.01 µM
TGI [53]: < 0.01 µM
GI50 [54]: < 0.01 µM
TGI [54]: 0.0869 µM
GI50 [55]: 0.133 µM
TGI [55]: 2.13 µM
